From publication doi:10.1101/365908v1 (biorxiv, 2018)

Target: T1, human GSDMD (full-length) (Homo sapiens, UniProt P57764)
T1 sequence (P57764 1-484): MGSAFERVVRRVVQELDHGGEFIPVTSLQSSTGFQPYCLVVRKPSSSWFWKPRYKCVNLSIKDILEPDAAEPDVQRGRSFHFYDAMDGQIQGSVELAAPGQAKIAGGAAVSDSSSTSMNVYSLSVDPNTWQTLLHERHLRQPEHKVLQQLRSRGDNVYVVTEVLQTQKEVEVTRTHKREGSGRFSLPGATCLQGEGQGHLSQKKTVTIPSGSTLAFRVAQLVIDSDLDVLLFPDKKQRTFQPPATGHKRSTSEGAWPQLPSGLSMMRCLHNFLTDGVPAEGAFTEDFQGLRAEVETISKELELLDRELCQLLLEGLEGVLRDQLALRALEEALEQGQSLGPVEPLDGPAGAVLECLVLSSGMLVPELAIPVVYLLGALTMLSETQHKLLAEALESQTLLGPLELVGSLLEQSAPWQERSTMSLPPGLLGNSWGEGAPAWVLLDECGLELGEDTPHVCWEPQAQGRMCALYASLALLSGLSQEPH
Assay: Tb3+/DPA liposome leakage
Assay type: biochemical
Conditions: covalent (Cys191); 1 h preincubation; cleavage by 0.15 µM caspase-11; no Cu(II)

IC50: 300 ± 10 nM
Structure (SMILES): CCN(CC)C(=S)SSC(=S)N(CC)CC [C-23, Tetraethylthiuram disulfide]
